| SMILES | melting point |
| --- | --- |
| Nc1cc(-c2ccc(F)cc2F)nc(C(=O)O)c1Cl [Compound 145, 4-Amino-3-chloro-6-(2,4-difluorophenyl)pyridine-2-carboxylic acid] | 206 °C (dec.) |
| CC(C)c1ccc(-c2cc(N)c(Cl)c(C(=O)O)n2)cc1 [Compound 147, 4-Amino-3-chloro-6-(4-isopropylphenyl)pyridine-2-carboxylic acid] | 142 to 143 °C |
| Nc1cc(-c2cccc(C(F)(F)F)c2)nc(C(=O)O)c1Cl [Compound 157, 4-Amino-3-chloro-6-[3-(trifluoromethyl)phenyl]pyridine-2-carboxylic acid] | 175 to 176 °C |
| Cc1ccccc1-c1cc(N)c(Cl)c(C(=O)O)n1 [Compound 165, 4-Amino-3-chloro-6-(2-methylphenyl)pyridine-2-carboxylic acid] | 188 to 189 °C |
| Nc1cc(-c2c(F)cccc2F)nc(C(=O)O)c1Cl [Compound 169, 4-Amino-3-chloro-6-(2,6-difluorophenyl)pyridine-2-carboxylic acid] | 165 to 166 °C |
| Nc1cc(-c2ccc(OC(F)(F)F)cc2)nc(C(=O)O)c1Cl [Compound 174, 4-Amino-3-chloro-6-[4-(trifluoromethoxy)phenyl]pyridine-2-carboxylic acid] | 164 to 165 °C |
| Nc1cc(-c2cc(Cl)ccc2Cl)nc(C(=O)O)c1Cl [Compound 177, 4-Amino-3-chloro-6-(2,5-dichlorophenyl)pyridine-2-carboxylic acid] | 213 to 215 °C |
| Nc1cc(-c2ccc(Cl)cc2C(F)(F)F)nc(C(=O)O)c1Cl [Compound 182, 4-Amino-3-chloro-6-(4-chloro-2-(trifluoromethyl)phenyl)pyridine-2-carboxylic acid] | 178 to 180 °C |
| COc1ccc(-c2cc(N)c(Cl)c(C(=O)O)n2)cc1OC [Compound 185, 4-Amino-3-chloro-6-(3,4-dimethoxyphenyl)pyridine-2-carboxylic acid] | 182 to 183 °C |
| COc1cc(Cl)ccc1-c1cc(N)c(Cl)c(C(=O)O)n1 [Compound 186, 4-Amino-3-chloro-6-(4-chloro-2-methoxyphenyl)pyridine-2-carboxylic acid] | 182 to 183 °C |
| Nc1cc(-c2ccc3c(c2Cl)OCO3)nc(C(=O)O)c1Cl [Compound 187, 4-Amino-3-chloro-6-(2-chloro-3,4-methylenedioxyphenyl)pyridine-2-carboxylic acid] | 226 to 227 °C |
| Nc1cc(-c2ccc3c(c2)CCC3)nc(C(=O)O)c1Cl [Compound 188, 4-Amino-3-chloro-6-(5-indanyl)pyridine-2-carboxylic acid] | 204 to 205 °C |
| Cc1ccc(-c2cc(N)c(Cl)c(C(=O)O)n2)c(Cl)c1 [Compound 190, 4-Amino-3-chloro-6-(2-chloro-4-methylphenyl)pyridine-2-carboxylic acid] | 71 to 72 °C |
| Cc1cc(F)c(-c2cc(N)c(Cl)c(C(=O)O)n2)cc1Cl [Compound 192, 4-Amino-3-chloro-6-(5-chloro-2-fluoro-4-methylphenyl)pyridine-2-carboxylic acid] | 173 to 175 °C |
| COc1ccc(OC)c(-c2cc(N)c(Cl)c(C(=O)O)n2)c1 [Compound 194, 4-Amino-3-chloro-6-(2,5-dimethoxyphenyl)pyridine-2-carboxylic acid] | 185 to 186 °C |
| COCc1cc(-c2cc(N)c(Cl)c(C(=O)O)n2)ccc1Cl [Compound 195, 4-Amino-3-chloro-6-(4-chloro-3-methoxymethylphenyl)pyridine-2-carboxylic acid] | 162 °C |

| SMILES | melting point |
| --- | --- |
| Nc1cc(-c2ccc3c(c2)CCO3)nc(C(=O)O)c1Cl [Compound 201, 4-Amino-3-chloro-6-(2,3-dihydro-5-benzofuranyl)pyridine-2-carboxylic acid] | 218 to 220 °C |
| Nc1c(Cl)c(C(=O)O)nc(-c2cccs2)c1Cl [Compound 208, 4-Amino-3,5-dichloro-6-(2-thienyl)pyridine-2-carboxylic acid] | 144 °C |
| Nc1cc(-c2cnccn2)nc(C(=O)O)c1Cl [Compound 220, 4-Amino-3-chloro-6-(2-pyrazinyl)pyridine-2-carboxylic acid] | 172 to 173 °C |
| Nc1c(F)c(-c2ccc(Cl)nc2)nc(C(=O)O)c1Cl [Compound 221, 4-Amino-3-chloro-5-fluoro-6-(6-chloro-3-pyridinyl)pyridine-2-carboxylic acid] | 125 °C (dec.) |
| Cn1nccc1-c1cc(N)c(Cl)c(C(=O)O)n1 [Compound 223, 4-Amino-3-chloro-6-(1-methyl-1H-pyrazol-5-yl)pyridine-2-carboxylic acid] | 230 to 232 °C |
| Nc1cc(-c2nc3ccccc3o2)nc(C(=O)O)c1Cl [Compound 226, 4-Amino-3-chloro-6-(2-benzoxazolyl)pyridine-2-carboxylic acid] | 262 °C (dec.) |
| Nc1cc(-c2nc3ccccc3s2)nc(C(=O)O)c1Cl [Compound 230, 4-Amino-3-chloro-6-(2-benzothiazolyl)pyridine-2-carboxylic acid] | 283 °C |
| COc1ncc(-c2cc(N)c(Cl)c(C(=O)O)n2)cn1 [Compound 239, 4-Amino-3-chloro-6-(2-methoxy-5-pyrimidinyl)pyridine-2-carboxylic acid] | 153 °C |
| Nc1c(Cl)c(C(=O)O)nc(-c2cncs2)c1Cl [Compound 241, 4-Amino-3,5-dichloro-6-(5-thiazolyl)pyridine-2-carboxylic acid] | 175 to 177 °C |
| COC(=O)c1nc(-c2ccc(CO)cc2)cc(N)c1Cl [Compound 242, Methyl 4-amino-3-chloro-6-(4-hydroxymethylphenyl)pyridine-2-carboxylate] | 138 to 139 °C |
| COC(=O)c1nc(-c2ccc(CF)cc2)cc(N)c1Cl [Compound 243, methyl 4-amino-3-chloro-6-(4-fluoromethylphenyl)pyridine-2-carboxylate] | 95 to 97 °C |
| CCCCCCCCCCOC(=O)c1nc(-c2ccc(Cl)cc2)c(F)c(N)c1Cl [Compound 244, Decyl 4-amino-3-chloro-5-fluoro-6-(4-chlorophenyl)pyridine-2-carboxylate] | 62 to 63 °C |
| CCCCOCCOC(=O)c1nc(-c2ccc(Cl)cc2)c(F)c(N)c1Cl [Compound 245, 2-Butoxyethyl 4-amino-3-chloro-5-fluoro-6-(4-chlorophenyl)pyridine-2-carboxylate] | 103 to 104 °C |
| CCCCOC(=O)c1nc(-c2ccc(C)cc2)cc(N)c1Cl [Compound 249, Butyl 4-amino-3-chloro-6-(4-methylphenyl)pyridine-2-carboxylate] | 60 to 62 °C |
| CCOC(=O)c1nc(-c2ccc(Cl)cc2)c(F)c(N)c1Cl [Compound 252, Ethyl 4-amino-3-chloro-5-fluoro-6-(4-chlorophenyl)pyridine-2-carboxylate] | 88 to 89 °C |
| CCOC(=O)c1nc(-c2ccc(C)cc2)cc(N)c1Cl [Compound 263, Ethyl 4-amino-3-chloro-6-(4-methylphenyl)pyridine-2-carboxylate] | 129 to 130 °C |

More lines, now with the values ahead:

| melting point | SMILES |
| --- | --- |
| 170 to 171 °C | Nc1cc(-c2ccc(F)cc2)nc(C(=O)O)c1Cl [Compound 156, 4-Amino-3-chloro-6-(4-fluorophenyl)pyridine-2-carboxylic acid] |
| 181 to 182 °C | Nc1cc(-c2ccc(CO)cc2)nc(C(=O)O)c1Cl [Compound 159, 4-Amino-3-chloro-6-(4-hydroxymethylphenyl)pyridine-2-carboxylic acid] |
| 156 to 157 °C | Nc1cc(-c2ccc(CF)cc2)nc(C(=O)O)c1Cl [Compound 160, 4-Amino-3-chloro-6-[4-(fluoromethyl)phenyl]pyridine-2-carboxylic acid] |
| 188 °C | Cc1ccc(-c2cc(N)c(Cl)c(C(=O)O)n2)cc1Cl [Compound 164, 4-Amino-3-chloro-6-(3-chloro-4-methylphenyl)pyridine-2-carboxylic acid] |
| 182 to 183 °C | Nc1cc(-c2cc(F)cc(F)c2)nc(C(=O)O)c1Cl [Compound 167, 4-Amino-3-chloro-6-(3,5-difluorophenyl)pyridine-2-carboxylic acid] |
| 131 °C | COc1ccc(-c2cc(N)c(Cl)c(C(=O)O)n2)cc1C [Compound 193, 4-Amino-3-chloro-6-(4-methoxy-3-methylphenyl)pyridine-2-carboxylic acid] |
| 155 °C (dec.) | Nc1cc(-c2ccncc2)nc(C(=O)O)c1Cl [Compound 209, 4-Amino-3-chloro-6-(4-pyridinyl)pyridine-2-carboxylic acid] |
| 110 °C (dec.) | COc1ccc(-c2cc(N)c(Cl)c(C(=O)O)n2)cn1 [Compound 213, 4-Amino-3-chloro-6-(6-methoxy-3-pyridinyl)pyridine-2-carboxylic acid] |
| 185 °C (dec.) | Nc1cc(-c2ccccn2)nc(C(=O)O)c1Cl [Compound 214, 4-Amino-3-chloro-6-(2-pyridinyl)pyridine-2-carboxylic acid] |
| 184 °C | Nc1cc(-c2ccsc2)nc(C(=O)O)c1Cl [Compound 216, 4-Amino-3-chloro-6-(3-thienyl)pyridine-2-carboxylic acid] |
| 175 to 176 °C | Cc1ccc(-c2cc(N)c(Cl)c(C(=O)O)n2)s1 [Compound 218, 4-Amino-3-chloro-6-(5-methyl-2-thienyl)pyridine-2-carboxylic acid] |
| 184 to 185 °C | Nc1cc(-c2nccs2)nc(C(=O)O)c1Cl [Compound 222, 4-Amino-3-chloro-6-(2-thiazolyl)pyridine-2-carboxylic acid] |
| 180 °C | Nc1cc(-c2cncnc2)nc(C(=O)O)c1Cl [Compound 228, 4-Amino-3-chloro-6-(5-pyrimidinyl)pyridine-2-carboxylic acid] |
| 166 to 170 °C | Nc1cc(-c2cnco2)nc(C(=O)O)c1Cl [Compound 231, 4-Amino-3-chloro-6-(5-oxazolyl)pyridine-2-carboxylic acid] |
